Data set [1] has as its system CB MNC. The experiment in a line: Fluorimetric determination of [Ca2+]i in CB MNC (FURA 2). It is filed as cell-based, human. As to the method:
Measurements were performed at room temperature in a 2 ml-cuvette under continuous stirring. […] Chem., 273, 8017-8024. The frequency of recording was 1 point/s. All measurements were performed in Ca^2+-free external solutions.

In the next data set the test system is Live L. pictus eggs. The experiment in a line: Microinjection into live sea urchin eggs (Ca2+ mobilization, cortical reaction). Background: Calcium assays in cells follow changes in intracellular calcium, usually with a dye or a luminescent sensor.
Data set [2] relates to CD38. As to conditions: 1 μg/ml CD38 at 37° C.
Data set [3] can be described thus: Stability to heat (boiling water bath), read out by Ca2+ release. The text has this:
Aliquots were then cooled on ice and the ability of the sample to release Ca^2+ determined. Data is average±sd for a representative experiment performed in triplicate.

In data set [4] the test system is sea urchin egg homogenates. The experiment in a line: Ca2+ release assay in sea urchin egg homogenates. In kind it is biochemical, Strongylocentrotus purpuratus. The settings on record: for EC50: S. purpuratus egg homogenates, read-out: half-maximal concentration for Ca2+ release (EC50). As to the method: The dilutions and all experiments were conducted at 17° C. Free Ca^2+ concentrations were measured by monitoring the fluorescence (490 nm excitation, 535 nm emission) of the indicator using a Perkin Elmer Model 650 spectrofluometer. […] For some experiments a BMG FluoStar 96 well fluorescence plate reader was used. In this case, samples to be tested were added to wells of a 96 well plate in 1.5 μl aliquots. Calcium release was initiated by adding 150 μl of homogenate to each well with a multichannel pipette. Six to eight wells were measured simultaneously. Samples to be tested were diluted in IM buffer containing 10 μM EGTA.

The subject of data set [5] is CD38. The experiment in a line: Stability to hydrolysis by CD38, read out by Ca2+ release.
The test system of data set [6] is cord blood (CB) mononuclear cells (MNC).
Description: (§2) After liquid culture, an appropriate number of MNC or CD34^+-enriched cells was plated in methylcellulose medium supplemented with a mixture of hemopoietic growth factors (Methocult; Stem Cell Technologies, Vancouver, BC, Canada). After 14 days of incubation in a humidified, 5% CO2 atmosphere at 37° C., colonies were scored using an inverted microscope, applying standard criteria for their identification.
A further data set concerns L. pictus. The settings on record: cited from earlier work.
The conditions of data set [7]: general statement, not tested here; cited from earlier work.
For data set [8], the system named is CB MNC. In words: Cytosine arabinoside-susceptibility of CB MNC CFC. In kind it is cell-based, human. The source says:
Thereafter, cells were washed, counted and plated in semisolid medium for assay of CFC at a concentration of 10^4 MNC/plate.

For data set [9], the system named is specific microsomal binding site for cADPR. The settings on record: cited from earlier work.
The next data set relates to CD34+-enriched MNC. In words: CFC growth from CD34+-enriched fractions. It is filed as cell-based, human. The settings on record: 100 μM, 24 hours, n=6. Here is the method: Immunoaffinity purification of CD34^+ cells was used to enrich MNC in colony forming cells (CFC) and early progenitors (Krause, D. […] CD34^+ cell enrichment was performed by positive selection using the miniMACS immunomagnetic separation system (Miltenyi Biotec GmBH, Germany). Briefly, PB- or CB-derived MNC were suspended in phosphate-buffered saline (PBS) containing 0.5% bovine serum albumin and 5 mM EDTA and CD34^+ cells were separated using anti-CD34 antibody (clone: QBEND/10; isotype: mouse IgG1) and colloidal superparamagnetic beads. After labeling, the cell suspension was passed through a column held within a magnetic field causing CD34^+ cells to be retained in the column. Purified CD34^+ cells were then collected following removal of the column from the magnet and washing with buffer.

Data set [10] relates to bone marrow (BM)-derived clonogenic progenitors. In words: CFC output of bone marrow-derived clonogenic progenitors. In kind it is cell-based, human. As to conditions: 100 μM, 24 hours, n=3. The text has this:
(§1) Normal bone marrow (BM) cells were obtained from donors providing marrow for allogeneic transplantation. Leukapheresis samples were obtained from normal donors providing peripheral blood (PB) progenitor cells for allogeneic transplant after a short course of granulocyte colony-stimulating factor. All donors gave informed consent. Mononuclear cells (MNC) from CB, BM and PB were separated by density gradient centrifugation on Ficoll-Hypaque (Sigma). After separation, cells were washed twice in Iscove's Modified Dulbecco's Medium (IMDM) containing 5% fetal calf serum (FCS) and resuspended in IMDM containing 10% FCS, penicillin 100 U/ml, streptomycin 100 μg/ml and glutamine 2 mM (complete medium).

For data set [11], the system named is peripheral blood (PB)-derived clonogenic progenitors. The experiment in a line: CFC output of peripheral blood-derived clonogenic progenitors. In kind it is cell-based, human. As to conditions: 100 μM, 24 hours, n=2.
Description: as §1

Data set [12] concerns cord blood (CB) mononuclear cells (MNC). The experiment in a line: Colony size (cells per colony) from CB MNC. It is filed as cell-based, human. As to conditions: 100 μM, 24 hours priming.
Description: as §2
Setting [13] is: 100 nM in pipette, about 0.7 nM in the egg.
Where [14] appears, read: 1 μM in pipette, about 10 nM in the egg.
Where [15] appears, read: 10 μM in pipette, ~130 nM in the egg.

Entries after “also recorded” stand apart in the source; their conditions may differ. Like-named read-outs stand apart in the source and are kept apart here.

The source of these data is patent publication US6593307B1, “Cyclic-ADP-ribose analogs” (Regents of the University of Minnesota, priority 1999, dated 2003).

Description for Live L. pictus eggs: Live L. pictus eggs were preloaded with the calcium indicator, fluo 3, by microinjection.

Consider `N=c1c2ncn3c2ccn1C1OC(COP(=O)(O)OP(=O)(O)OCC2OC3C(O)C2O)C(O)C1O` (stereo not shown) [3-deaza-cADPR, cyclic 3-deaza-adenosine diphosphoribose], for which, in the data set on CB MNC [1] (10 nM 3-deaza-cADPR, n=7, basal 20.3±1.8), the “[Ca2+]i after 24 hours” value stood at 96.4 ± 5.0 nM. Moreover, the “calcium response of intact cells over 30 min” value in the data set on CB MNC [1] (100 μM cADPR or 10 nM 3-deaza-cADPR, zero-calcium external solution) is “same rate and extent”. In the data set with CB MNC [1] (at least 48 hours after removal), the “calcium levels following removal of the nucleotide” value is “remained unchanged”. Moreover, in the data set with CB MNC [1] (single exponential fit, 10 nM), the “[Ca2+]i(t=0), fitted parameter” value stood at 21.1 ± 0.6 nM; the “Δmax[Ca2+]i, fitted maximal calcium change” value was 74.0 ± 0.7 nM; the “τ, time constant of [Ca2+]i increase” value is recorded as 6.5 h. Moreover, in the data set with Live L. pictus eggs (setting [13]), the “Ca2+ transient” value is listed as “small” and the “injected eggs with partial cortical reaction” value is given as 1 out of 6. In the data set with Live L. pictus eggs (setting [14]), the “full cortical reactions out of the 7 eggs injected” value was 4 and the “partial cortical reaction out of the 7 eggs injected” value stood at 1. In the data set on Live L. pictus eggs (setting [15]), the “Ca2+ transient” value is “large” and the “eggs with full cortical reaction” value is 5 out of 5. For the same molecule, the “hydrolysis by CD38” value in the data set with CD38 [2] is “did not hydrolyze”. Also, in [3], the “resistance to heat hydrolysis” value is given as “resistant”. Moreover, in data set [3] (boiling for up to two hours, 350 nM), the “fraction inactivated upon boiling” value was “about 15%”. In [4], the “lag before Ca2+ release at low concentrations” value is reported as “an appreciable lag is seen” and the EC50 was determined as 1 ± 0.4 nM. Besides, the “desensitization of homogenate to subsequent challenge by the other agonist” value in data set [4] (1 μM cADPR, 500 nM 3-deaza-cADPR) is reported as “renders the system unresponsive”. For the same molecule, in data set [4] (control traces, FIG. 3), the “final concentration able/needed to elicit Ca2+ release” value was found to be 0.3 nM. Moreover, in the data set on CD38 [5], the “resistance to enzymatic hydrolysis” value is reported as “resistant”. For the same molecule, in data set [6] (1 nM, n=5, control 1,150), the “median CFC output” value is recorded as 2,050 CFC/ml. Besides, the “median CFC output” value in data set [6] (1 μM, n=5, control 1,150) is reported as 2,200 CFC/ml. In addition, the “CFC output compared to untreated cells” value in data set [6] (1, 10, 100 and 1,000 nM, each concentration) is “significant increase”. In addition, in data set [6] (CFC output), the “effect of 1 nM as share of the effect induced by 1 μM” value was 95%.

For the molecule `N=c1c2nc(N)n3c2ncn1[C@@H]1O[C@H](COP(=O)(O)OP(=O)(O)OC[C@H]2O[C@@H]3[C@H](O)[C@@H]2O)[C@@H](O)[C@H]1O` [8-NH2-cADPR], in the data set with CB MNC [1] (10 μM, 24 hours), the “amount of Ca2+ releasable by calcium ionophore A23187 vs untreated” value is reported as “consistent increase”. For the same molecule, in the data set on CB MNC [1] (10 μM, 24 hours, n=3, from 20±2), the “basal [Ca2+]i after incubation” value stood at 14 ± 1 nM. In addition, in the data set on CB MNC [1] (100 μM, 2 hours pre-incubation), the “effect on calcium increase induced by cADPR” value was “completely inhibited”. For the same molecule, in the data set with CB MNC [1] (2 hours pre-incubation with 100 μM 8-NH2-cADPR, then 100 μM cADPR for 4 hours, n=2), the “[Ca2+]i following exposure to cADPR” value is recorded as 20 nM. Further, the “effect on 3-deaza-cADPR-induced Ca2+ release” value in data set [4] (2.7 nM 3-deaza-cADPR, 60 and 300 nM 8-amino-cADPR) was “blocks; also recorded: can also inhibit”. Moreover, the “mean CFC output” value in [6] (10 μM 8-NH2-cADPR plus 10-fold excess cADPR (100 μM), 24 hours, control 2,800) is given as 1,200 CFC/ml; in [6] (10 μM 8-NH2-cADPR plus 100-fold excess cADPR (1 mM), 24 hours, control 2,600), 2,500 CFC/ml. Besides, the “effect on colony growth” value in data set [6] (10 μM, 24 hours pre-treatment) is listed as “completely inhibited colony growth”. Besides, the “median CFC output” value in [6] (10 μM, 24 hours, n=3, untreated 3,400) is listed as “zero”. Also, in data set [6] (after 10 μM 8-NH2-cADPR pre-treatment), the “colony growth after further 24 hours with cADPR (100 μM)” value is “did not restore colony growth”.

With `N=c1c2ccn3c2ncn1C1OC(COP(=O)(O)OP(=O)(O)OCC2OC3C(O)C2O)C(O)C1O` (stereo not shown) [7-deaza-cADPR], the “relative potency of cADPR and 7-deaza-cADPR” value in the data set with L. pictus is reported as “cADPR is more potent than 7-deaza-cADPR”. Moreover, in data set [4], the agonist character result is “partial agonist” and the EC50 is around 25 nM. Besides, the “Ca2+ release relative to that induced by cADPR or 3-deaza-cADPR” value in data set [4] (maximal response, FIG. 4) was “about 70%”. Further, the “resistance of the N1-glycosidic linkage to hydrolysis” value in data set [7] was “resistant to hydrolysis”.

As for `Nc1ccn([C@@H]2O[C@H](CO)[C@@H](O)[C@@H]2O)c(=O)n1` [c-ARA, Cytosine arabinoside], the “effect on the growth-stimulating effect of cADPR” value in the data set with CB MNC [8] (1 μM c-ARA, 24 hours) is given as “complete inhibition”. Further, the “effect on increased replating efficiency produced by cADPR priming” value in the data set on CB MNC [8] (1 μM c-ARA, 24 hours pretreatment) was “did not affect”. Also, the median colony number with CB MNC [8] (c-ARA pretreated (1 μM, 24 hours), incubated without cADPR, n=8) is 21 per 10^4 plated MNC.

Turning to inositol trisphosphate, in data set [9], the “competition for the cADPR binding site relative to cADPR” value is “at least a thousand times less effectively than cADPR”.

Regarding `Nc1ncnc2c1ncn2[C@@H]1O[C@H](COP(=O)(O)OP(=O)(O)OC[C@H]2OC(O)[C@H](O)[C@@H]2O)[C@@H](O)[C@H]1O` (stereo partly shown) [ADPR, ADP-ribose], in the data set with CD34+-enriched MNC, the “median CFC growth from CD34+-enriched fractions” value is 18,000 CFC/10^6 MNC and the “range of CFC growth from CD34+-enriched fractions” value is 360-70,000 CFC/10^6 MNC. The “median CFC output, BM-derived” value in data set [10] was 1,500 CFC/ml. Further, in data set [6] (100 μM, 24 hours, CB MNC), the “Median CFC number per ml” value was 2,141 CFC/ml and the “Range of CFC number per ml” value is 600-13,120 CFC/ml. For the same molecule, the “effect on CFC growth compared to untreated cells” value in [6] (any of the concentrations tested (1-1,000 μM)) is on record as “No effect”. In addition, the “median CFC output, PB-derived” value in data set [11] is given as 1,460 CFC/ml. In [12], the “Median number of cells per colony” value was 11,560 and the “Range of number of cells per colony” value is 6,200-19,000.
